Measured values from paper PMC5218480 (PLoS ONE, 2017).

Test system: MV-4-11 cells
Test: Gene expression microarray analysis (Affymetrix PrimeView) and GSEA
Format: cell-based, human
Design: RFU PODN (11730768_x_at) / Fold change /veh PODN (11730768_x_at) / RFU LINC00158 (11744669_a_at) / Fold change /veh LINC00158 (11744669_a_at) / RFU DUSP10 (11751237_a_at) / Fold change /veh DUSP10 (11751237_a_at) / RFU ID3 (11757404_x_at) / Fold change /veh ID3 (11757404_x_at) / RFU PLEKHG5 (11737974_s_at) / Fold change /veh PLEKHG5 (11737974_s_at) / RFU LRRC4B (11730491_at) / Fold change /veh LRRC4B (11730491_at) / RFU GIMAP4 (11747438_a_at) / Fold change /veh GIMAP4 (11747438_a_at) / RFU KRT8 (11758183_x_at) / Fold change /veh KRT8 (11758183_x_at) / RFU CNN1 (11734310_a_at) / Fold change /veh CNN1 (11734310_a_at) / RFU VPS37D (11726825_at) / Fold change /veh VPS37D (11726825_at) / RFU C10orf10 (11716522_x_at) / Fold change /veh C10orf10 (11716522_x_at) / RFU KIR2DL2 /// KIR2DL4 /// KIR2DL5A /// KIR2DL5B /// KIR2DS1 /// KIR2DS2 /// KIR2DS3 /// KIR2DS4 /// KIR3DL3 /// KIR3DL3 /// KIR3DS1 (11738374_at) / Fold change /veh KIR2DL2 /// KIR2DL4 /// KIR2DL5A /// KIR2DL5B /// KIR2DS1 /// KIR2DS2 /// KIR2DS3 /// KIR2DS4 /// KIR3DL3 /// KIR3DL3 /// KIR3DS1 (11738374_at) / RFU C1QL1 (11718748_at) / Fold change /veh C1QL1 (11718748_at) / RFU TMPRSS4 (11747572_a_at) / Fold change /veh TMPRSS4 (11747572_a_at) / RFU HAMP (11756126_x_at) / Fold change /veh HAMP (11756126_x_at) / RFU RNFT2 (11725882_a_at) / Fold change /veh RNFT2 (11725882_a_at) / RFU NR4A2 (11747474_a_at) / Fold change /veh NR4A2 (11747474_a_at) / RFU ABCC12 (11746883_a_at) / Fold change /veh ABCC12 (11746883_a_at) / RFU TMEM136 (11760407_x_at) / Fold change /veh TMEM136 (11760407_x_at) / RFU CLDN22 /// WWC2 (11732394_at) / Fold change /veh CLDN22 /// WWC2 (11732394_at) / RFU HLA-DPB1 (11760878_x_at) / Fold change /veh HLA-DPB1 (11760878_x_at) / RFU SPINT1 (11716480_a_at) / Fold change /veh SPINT1 (11716480_a_at) / RFU GAP43 (11754022_s_at) / Fold change /veh GAP43 (11754022_s_at) / RFU A4GNT (11735810_at) / Fold change /veh A4GNT (11735810_at) / RFU PRB3 (11715151_x_at) / Fold change /veh PRB3 (11715151_x_at) / RFU TUBB4B (11761932_at) / Fold change /veh TUBB4B (11761932_at) / RFU CAPN14 (11732068_a_at) / Fold change /veh CAPN14 (11732068_a_at) / RFU TMCC2 (11721928_a_at) / Fold change /veh TMCC2 (11721928_a_at) / RFU IRGQ (11745062_a_at) / Fold change /veh IRGQ (11745062_a_at) / RFU FAM174B (11720279_a_at) / Fold change /veh FAM174B (11720279_a_at) / RFU TMPRSS4 (11748680_a_at) / Fold change /veh TMPRSS4 (11748680_a_at) / RFU FAM212B (11763350_a_at) / Fold change /veh FAM212B (11763350_a_at) / RFU PLEKHG5 (11743358_a_at) / Fold change /veh PLEKHG5 (11743358_a_at) / RFU ZSCAN30 (11745921_a_at) / Fold change /veh ZSCAN30 (11745921_a_at) / RFU CMKLR1 (11741424_a_at) / Fold change /veh CMKLR1 (11741424_a_at) / RFU LOC101060620 /// MAPK8IP1 (11723275_at) / Fold change /veh LOC101060620 /// MAPK8IP1 (11723275_at) / RFU SPTSSB (11747773_x_at) / Fold change /veh SPTSSB (11747773_x_at) / RFU PRSS12 (11739890_at) / Fold change /veh PRSS12 (11739890_at) / RFU BIN1 (11741810_x_at) / Fold change /veh BIN1 (11741810_x_at) / RFU WNT11 (11732464_a_at) / Fold change /veh WNT11 (11732464_a_at) / RFU C10orf10 (11716521_a_at) / Fold change /veh C10orf10 (11716521_a_at) / RFU C5orf56 (11738089_at) / Fold change /veh C5orf56 (11738089_at) / RFU CYB561 (11721691_x_at) / Fold change /veh CYB561 (11721691_x_at) / RFU ANKRD19P (11752326_a_at) / Fold change /veh ANKRD19P (11752326_a_at) / RFU OR2T12 /// OR2T33 /// OR2T8 (11738714_s_at) / Fold change /veh OR2T12 /// OR2T33 /// OR2T8 (11738714_s_at) / RFU VCAN (11748164_a_at) / Fold change /veh VCAN (11748164_a_at) / RFU JSRP1 (11732532_at) / Fold change /veh JSRP1 (11732532_at) / RFU KRTAP10-11 (11738290_x_at) / Fold change /veh KRTAP10-11 (11738290_x_at) / RFU MYO3A (11730013_a_at) / Fold change /veh MYO3A (11730013_a_at) / RFU EBF3 (11725865_a_at) / Fold change /veh EBF3 (11725865_a_at) / RFU CAMK2N1 (11719241_x_at) / Fold change /veh CAMK2N1 (11719241_x_at) / RFU C5orf56 (11738088_a_at) / Fold change /veh C5orf56 (11738088_a_at) / RFU OLFML3 (11715873_a_at) / Fold change /veh OLFML3 (11715873_a_at) / RFU LOC100653217 /// NTM (11731650_a_at) / Fold change /veh LOC100653217 /// NTM (11731650_a_at) / RFU MAPK11 (11762145_a_at) / Fold change /veh MAPK11 (11762145_a_at) / RFU FIZ1 (11724087_x_at) / Fold change /veh FIZ1 (11724087_x_at) / RFU OASL (11726364_x_at) / Fold change /veh OASL (11726364_x_at) / RFU SOX15 (11748057_x_at) / Fold change /veh SOX15 (11748057_x_at) / RFU CD79A (11719716_a_at) / Fold change /veh CD79A (11719716_a_at) / RFU HIST1H1D (11736915_at) / Fold change /veh HIST1H1D (11736915_at) / RFU CASKIN2 (11723855_a_at) / Fold change /veh CASKIN2 (11723855_a_at) / RFU LOC730098 (11760151_x_at) / Fold change /veh LOC730098 (11760151_x_at) / RFU OR4N2 (11742367_at) / Fold change /veh OR4N2 (11742367_at) / RFU PRRT2 (11749266_a_at) / Fold change /veh PRRT2 (11749266_a_at) / RFU SNX32 (11753110_a_at) / Fold change /veh SNX32 (11753110_a_at) / RFU CDHR5 (11726645_a_at) / Fold change /veh CDHR5 (11726645_a_at) / RFU RCAN1 (11760418_a_at) / Fold change /veh RCAN1 (11760418_a_at) / RFU FAM167A (11723789_a_at) / Fold change /veh FAM167A (11723789_a_at) / RFU FAM26E (11764081_at) / Fold change /veh FAM26E (11764081_at) / RFU ISYNA1 (11749810_s_at) / Fold change /veh ISYNA1 (11749810_s_at) / RFU ACY1 (11761880_at) / Fold change /veh ACY1 (11761880_at) / RFU 11764098_at / Fold change /veh 11764098_at / RFU SAMD14 (11745864_x_at) / Fold change /veh SAMD14 (11745864_x_at) / RFU NPB (11741838_a_at) / Fold change /veh NPB (11741838_a_at) / RFU TMPRSS6 (11731388_a_at) / Fold change /veh TMPRSS6 (11731388_a_at) / RFU KRTAP10-2 (11738614_at) / Fold change /veh KRTAP10-2 (11738614_at) / RFU ARHGAP8 /// PRR5-ARHGAP8 (11727945_x_at) / Fold change /veh ARHGAP8 /// PRR5-ARHGAP8 (11727945_x_at) / RFU KRTAP5-7 /// NADSYN1 (11734609_at) / Fold change /veh KRTAP5-7 /// NADSYN1 (11734609_at) / RFU RASL12 (11751679_a_at) / Fold change /veh RASL12 (11751679_a_at) / RFU CDKN2B (11736163_a_at) / Fold change /veh CDKN2B (11736163_a_at) / RFU PRF1 (11729649_at) / Fold change /veh PRF1 (11729649_at) / RFU, ZNF638 /// ZNF638-IT1 / Fold change vs veh, ZNF638 /// ZNF638-IT1 / RFU, PANK3 / Fold change vs veh, PANK3 / RFU, SH3YL1 / Fold change vs veh, SH3YL1 / RFU, ZEB2 / Fold change vs veh, ZEB2 / RFU, NRIP1 / Fold change vs veh, NRIP1 / RFU, PTTG1IP / Fold change vs veh, PTTG1IP / RFU, CAPN2 / Fold change vs veh, CAPN2 / RFU, MED14 / Fold change vs veh, MED14 / RFU, SNORA58 / Fold change vs veh, SNORA58 / RFU, C1orf63 / Fold change vs veh, C1orf63 / RFU, LRRFIP1 / Fold change vs veh, LRRFIP1 / RFU, NDUFAF7 / Fold change vs veh, NDUFAF7 / RFU, SLC12A2 / Fold change vs veh, SLC12A2 / RFU, IBTK / Fold change vs veh, IBTK / RFU, ESF1 / Fold change vs veh, ESF1 / Fold change vs veh, TMEM50B / RFU, TAOK1 / Fold change vs veh, TAOK1 / RFU, ACBD3 / Fold change vs veh, ACBD3 / RFU, TMA16 / Fold change vs veh, TMA16 / RFU, RWDD3 / Fold change vs veh, RWDD3 / RFU, BCAT1 / Fold change vs veh, BCAT1 / RFU, EDEM3 / Fold change vs veh, EDEM3 / RFU, TMEM33 / Fold change vs veh, TMEM33 / RFU, WDR75 / Fold change vs veh, WDR75 / RFU, AHCTF1 / Fold change vs veh, AHCTF1 / RFU, TFRC / Fold change vs veh, TFRC / RFU, ZDHHC17 / Fold change vs veh, ZDHHC17 / RFU, NOM1 / Fold change vs veh, NOM1 / RFU, ARL8B / Fold change vs veh, ARL8B / RFU, ZBTB11 / Fold change vs veh, ZBTB11 / RFU, TAMM41 / Fold change vs veh, TAMM41 / RFU, KIAA1704 /// LOC100996395 / Fold change vs veh, KIAA1704 /// LOC100996395 / RFU, ING1 / Fold change vs veh, ING1 / RFU, TRMT61B / Fold change vs veh, TRMT61B / RFU, FUBP3 / Fold change vs veh, FUBP3 / RFU, TP53 / Fold change vs veh, TP53 / RFU, TNKS2 / Fold change vs veh, TNKS2 / RFU, ZFP14 / Fold change vs veh, ZFP14 / RFU, ACTR2 / Fold change vs veh, ACTR2 / RFU, PPP3R1 / Fold change vs veh, PPP3R1 / RFU, PIK3R1 / Fold change vs veh, PIK3R1 / RFU, HNRNPA1 / Fold change vs veh, HNRNPA1 / RFU, RNF170 / Fold change vs veh, RNF170 / RFU, ZNF28 / Fold change vs veh, ZNF28 / RFU, RNGTT / Fold change vs veh, RNGTT / RFU, OGT / Fold change vs veh, OGT / RFU, BRD1 / Fold change vs veh, BRD1 / RFU, MARS / Fold change vs veh, MARS / RFU, ZNF655 / Fold change vs veh, ZNF655 / RFU, FAHD1 / Fold change vs veh, FAHD1 / RFU, BDP1 / Fold change vs veh, BDP1 / RFU, LRRCC1 / Fold change vs veh, LRRCC1 / RFU, ARID1A / Fold change vs veh, ARID1A / RFU, ZNF146 / Fold change vs veh, ZNF146 / RFU, ZNF330 / Fold change vs veh, ZNF330 / RFU, GPN3 / Fold change vs veh, GPN3 / RFU, C9orf123 / Fold change vs veh, C9orf123 / RFU, N4BP2L2 / Fold change vs veh, N4BP2L2 / RFU, ARFIP1 / Fold change vs veh, ARFIP1 / RFU, FAM179B / Fold change vs veh, FAM179B / RFU, BCL10 / Fold change vs veh, BCL10 / RFU, UHRF1BP1L / Fold change vs veh, UHRF1BP1L / RFU, BET1 / Fold change vs veh, BET1 / RFU, CNOT2 / Fold change vs veh, CNOT2 / RFU, ZNF268 / Fold change vs veh, ZNF268 / Fold change vs veh, ZNF507 / RFU, DGCR2 / Fold change vs veh, DGCR2 / RFU, WDSUB1 / Fold change vs veh, WDSUB1 / Fold change vs veh, HSP90B1 /// MIR3652 / RFU, ADSS / Fold change vs veh, ADSS / RFU, GK / Fold change vs veh, GK / RFU, ZNF148 / Fold change vs veh, ZNF148 / RFU, TAF9 / Fold change vs veh, TAF9 / RFU, SLC1A5 / Fold change vs veh, SLC1A5 / RFU, SLMO2 / Fold change vs veh, SLMO2 / RFU, ABCC4 / Fold change vs veh, ABCC4 / RFU, LOC101060439 /// RAP1B / Fold change vs veh, LOC101060439 /// RAP1B / RFU, RFX7 / Fold change vs veh, RFX7 / RFU, GTPBP10 / Fold change vs veh, GTPBP10 / RFU, CNEP1R1 / Fold change vs veh, CNEP1R1 / RFU, BIVM-ERCC5 /// ERCC5 / Fold change vs veh, BIVM-ERCC5 /// ERCC5 / RFU, ILF3 / Fold change vs veh, ILF3 / RFU 11762660_at / Fold change /veh 11762660_at / RFU VCAN (11757783_s_at) / Fold change /veh VCAN (11757783_s_at) / RFU DDX43 (11728927_at) / Fold change /veh DDX43 (11728927_at) / RFU KRT8 (11758188_x_at) / Fold change /veh KRT8 (11758188_x_at) / RFU NKD1 (11759106_at) / Fold change /veh NKD1 (11759106_at) / RFU SRD5A1 (11742802_a_at) / Fold change /veh SRD5A1 (11742802_a_at) / RFU TPSAB1 /// TPSB2 (11721975_s_at) / Fold change /veh TPSAB1 /// TPSB2 (11721975_s_at) / RFU GSTM3 (11746129_a_at) / Fold change /veh GSTM3 (11746129_a_at) / RFU IL23R (11737362_x_at) / Fold change /veh IL23R (11737362_x_at) / RFU TMEM51 (11727254_a_at) / Fold change /veh TMEM51 (11727254_a_at) / RFU PIWIL2 (11732686_x_at) / Fold change /veh PIWIL2 (11732686_x_at) / RFU ORM1 (11744905_x_at) / Fold change /veh ORM1 (11744905_x_at) / RFU CCDC152 (11743942_at) / Fold change /veh CCDC152 (11743942_at) / RFU ECM1 (11717891_a_at) / Fold change /veh ECM1 (11717891_a_at) / RFU IL23R (11748794_a_at) / Fold change /veh IL23R (11748794_a_at) / RFU TNFAIP8L3 (11732012_x_at) / Fold change /veh TNFAIP8L3 (11732012_x_at) / RFU MBOAT4 (11741988_at) / Fold change /veh MBOAT4 (11741988_at) / RFU 11764193_at / Fold change /veh 11764193_at / RFU TMEM53 (11763286_at) / Fold change /veh TMEM53 (11763286_at) / RFU MAGEB2 (11727129_at) / Fold change /veh MAGEB2 (11727129_at) / RFU TMEM200A (11744735_a_at) / Fold change /veh TMEM200A (11744735_a_at) / RFU CCDC152 (11751479_a_at) / Fold change /veh CCDC152 (11751479_a_at) / RFU FAM211A (11726209_a_at) / Fold change /veh FAM211A (11726209_a_at) / RFU RGS16 (11746705_a_at) / Fold change /veh RGS16 (11746705_a_at) / RFU VCAN (11755009_s_at) / Fold change /veh VCAN (11755009_s_at) / RFU RHOB (11743442_s_at) / Fold change /veh RHOB (11743442_s_at) / RFU RGS16 (11720943_a_at) / Fold change /veh RGS16 (11720943_a_at) / RFU RGS16 (11720944_at) / Fold change /veh RGS16 (11720944_at) / RFU, VPS4B / Fold change vs veh, VPS4B / RFU, CREB1 / Fold change vs veh, CREB1 / RFU, DNAJC13 / Fold change vs veh, DNAJC13 / RFU, GNAQ / Fold change vs veh, GNAQ / RFU, CDK5R1 / Fold change vs veh, CDK5R1 / RFU, ZRANB3 / Fold change vs veh, ZRANB3 / RFU, CUL4A / Fold change vs veh, CUL4A / RFU, CCNY / Fold change vs veh, CCNY / RFU, UFL1 / Fold change vs veh, UFL1 / RFU, COG3 / Fold change vs veh, COG3 / RFU, DIAPH2 / Fold change vs veh, DIAPH2 / RFU, SKA2 / Fold change vs veh, SKA2 / RFU, AFF3 / Fold change vs veh, AFF3 / RFU, LMF1 / Fold change vs veh, LMF1 / RFU, IPO11 / Fold change vs veh, IPO11 / RFU, DFFB / Fold change vs veh, DFFB / RFU, FOXP1 / Fold change vs veh, FOXP1 / RFU, CARD8 / Fold change vs veh, CARD8 / RFU, STRN3 / Fold change vs veh, STRN3 / RFU, ADK / Fold change vs veh, ADK / RFU, RASSF2 / Fold change vs veh, RASSF2 / RFU, WIPF1 / Fold change vs veh, WIPF1 / RFU, LARP1B / Fold change vs veh, LARP1B / RFU, RASA1 / Fold change vs veh, RASA1 / RFU, RB1 / Fold change vs veh, RB1 / RFU, PPFIA1 / Fold change vs veh, PPFIA1 / RFU, MAT2A / Fold change vs veh, MAT2A / RFU, CCT5 / Fold change vs veh, CCT5 / RFU, WDR92 / Fold change vs veh, WDR92 / RFU, CUX1 / Fold change vs veh, CUX1 / RFU, TTC7A / Fold change vs veh, TTC7A / RFU, TMEM135 / Fold change vs veh, TMEM135 / RFU, DEPTOR / Fold change vs veh, DEPTOR / RFU, CPM / Fold change vs veh, CPM / RFU, DNAJB6 / Fold change vs veh, DNAJB6 / RFU, CACNA2D3 / Fold change vs veh, CACNA2D3 / RFU, DTX4 / Fold change vs veh, DTX4 / RFU, TFCP2 / Fold change vs veh, TFCP2 / RFU, GMCL1 /// GMCL1P1 / Fold change vs veh, GMCL1 /// GMCL1P1 / RFU, AEBP2 / Fold change vs veh, AEBP2 / RFU, SNHG1 /// SNORD22 /// SNORD25 /// SNORD26 /// SNORD27 /// SNORD28 /// SNORD29 /// SNORD31 / Fold change vs veh, SNHG1 /// SNORD22 /// SNORD25 /// SNORD26 /// SNORD27 /// SNORD28 /// SNORD29 /// SNORD31 / Fold change (Aza/veh), C12orf56 (ProbeSet 11735607_a_at) / Fold change (ACY-1035/veh), C12orf56 (ProbeSet 11735607_a_at) / Fold change (Aza/veh), FGFR1OP (ProbeSet 11751329_s_at) / Fold change (ACY-1035/veh), FGFR1OP (ProbeSet 11751329_s_at) / Fold change (Aza/veh), VPS36 (ProbeSet 11739960_a_at) / Fold change (ACY-1035/veh), VPS36 (ProbeSet 11739960_a_at) / RFU SYPL1 (11715823_x_at) / Fold change /veh SYPL1 (11715823_x_at) / RFU IGFBP7 (11715501_s_at) / Fold change /veh IGFBP7 (11715501_s_at) / RFU REEP3 (11722064_at) / Fold change /veh REEP3 (11722064_at) / RFU IGLL1 (11728026_x_at) / Fold change /veh IGLL1 (11728026_x_at): dose or concentration left out as unconfirmed
Details: MV-4-11 cells, 48 hours

## Nc1ncn([C@@H]2O[C@H](CO)[C@@H](O)[C@H]2O)c(=O)n1 [azacitidine]
  RFU REEP3 (11722064_at): 27.20 RFU
